# Assay results reported in patent publication US4861788A, “Antibacterial 1-normon-2-yl-heterocyclic compounds” (Beecham Group plc, priority 1983, dated 1989).
# Where two headings read alike, the source gives them in different places.
# Tests used:
# M. hyopneumoniae JF 435 = assay: MIC against Mycoplasma in vitro (Friis broth with agarose); format: cell-based; settings: Mesomycoplasma hyopneumoniae, JF435, 144 h
# M. hyopneumoniae Str. 11 = assay: as above; format: cell-based; settings: Mesomycoplasma hyopneumoniae, STR.11, 144 h
# [1] = tested on: M. hyopneumoniae J2206/183^b; assay: as above; format: cell-based; settings: Mesomycoplasma hyopneumoniae, 144 h
# M. hyopneumoniae MS 16 = assay: as above; format: cell-based; settings: Mesomycoplasma hyopneumoniae, MS16, 144 h
# M. hyopneumoniae UCD 1 = assay: as above; format: cell-based; settings: Mesomycoplasma hyopneumoniae, UCD1, 144 h
# [2] = tested on: M. hyopneumoniae ATCC 25095; assay: as above; format: cell-based; settings: Mesomycoplasma hyopneumoniae, ATCC25095, 144 h
# [3] = tested on: M. hyopneumoniae NCTC 101101; assay: as above; format: cell-based; settings: Mesomycoplasma hyopneumoniae, NCTC101101, 144 h
# M. hyorhinis ATCC 23234 = assay: as above; format: cell-based; settings: Mesomycoplasma hyorhinis, ATCC23234, 144 h
# M. hyorhinis ATCC 25021 = assay: as above; format: cell-based; settings: Mesomycoplasma hyorhinis, ATCC25021, 144 h; M. hyorhinis ATCC 25021; 6 days at 37° C; read-out: MIC
# M. bovis NCTC 10131 = assay: microbe, parasite or virus in culture; format: cell-based; settings: NCTC10131, 144 h
# M. gallisepticum S6 = assay: MIC against Mycoplasma in vitro (Friis broth with agarose); format: cell-based; settings: Mycoplasmoides gallisepticum, 144 h; M. gallisepticum S6; 6 days at 37° C; read-out: MIC
# M. pneumoniae ATCC 15492 = assay: as above; format: cell-based; settings: Mycoplasmoides pneumoniae, ATCC15492, 144 h; M. pneumoniae ATCC 15492; 6 days at 37° C; read-out: MIC
# Bacillus subtilis 6633 = assay: MIC against human bacteria in vitro (nutrient agar, chocolated horse blood); format: cell-based; settings: human; Bacillus subtilis 6633; 18 hours at 37° C; read-out: MIC
# Method: (§1) The activity of the normonyl derivaties of the Examples against various bacteria which are important in diseases of humans, was assayed in vitro using serial dilutions in nurient agar with 5% chocolated horse blood.
# E. coli NCTC 10418 = assay: as above; format: cell-based; settings: Escherichia coli, NCTC10418; human; E. coli NCTC 10418; 18 hours at 37° C; read-out: MIC
# Method: as §1
# P. mirabilis 889 = assay: as above; format: cell-based; settings: Proteus mirabilis; human; P. mirabilis 889; 18 hours at 37° C; read-out: MIC
# Method: as §1
# [4] = tested on: Pasteurella multocida 1633; assay: as above; format: cell-based; settings: human; Pasteurella multocida 1633; 18 hours at 37° C; read-out: MIC
# Method: as §1
# [5] = tested on: Ps. aeruginosa NCTC 10662; assay: as above; format: cell-based; settings: Pseudomonas aeruginosa, NCTC10662; human; Ps. aeruginosa NCTC 10662; 18 hours at 37° C; read-out: MIC
# Method: as §1
# Sarcina lutea 8340 = assay: as above; format: cell-based; settings: Micrococcus luteus; human; Sarcina lutea 8340; 18 hours at 37° C; read-out: MIC
# Method: as §1
# Staph. aureus Russell = assay: as above; format: cell-based; settings: Staphylococcus aureus; human; Staph. aureus Russell; 18 hours at 37° C; read-out: MIC
# Method: as §1
# Staph. aureus W2827 = assay: as above; format: cell-based; settings: Staphylococcus aureus; human; Staph. aureus W2827; 18 hours at 37° C; read-out: MIC
# Method: as §1
# Strep. agalactiae 2788-B = assay: as above; format: cell-based; settings: Streptococcus agalactiae; human; Strep. agalactiae 2788-B; 18 hours at 37° C; read-out: MIC
# Method: as §1
# Strep. faecalis I = assay: as above; format: cell-based; settings: Enterococcus faecalis; human; Strep. faecalis I; 18 hours at 37° C; read-out: MIC
# Method: as §1
# Strep. spp. 64/848-C = assay: as above; format: cell-based; settings: human; Strep. spp. 64/848-C; 18 hours at 37° C; read-out: MIC
# Method: as §1
# E. coli E1 = assay: MIC against veterinary bacteria in vitro (Diagnostic Sensitivity Test Agar); settings: Escherichia coli, E1, 18 h
# Method: (§2) The activity of the normonyl derivatives of the Examples against various veterinarily important bacteria, was assayed in vitro using two-fold serial dilutions in Diagnostic Sensitivity Test Agar inoculated with 10^4 organisms.
# Bord. bronchiseptica B08 = assay: as above; settings: Bordetella bronchiseptica, B08, 18 h
# Method: as §2
# Past. multocida PA1 = assay: as above; settings: Pasteurella multocida, PA1, 18 h
# Method: as §2
# [6] = tested on: Erysipelothrix rhusiopathiae NCTC 8163; assay: as above; settings: NCTC8163, 18 h
# Method: as §2
# [7] = tested on: Corynebacterium pyogenes CY1; assay: as above; settings: CY1, 18 h
# Method: as §2
# [8] = tested on: Staph. aureus 152 (pen. sens); assay: as above; settings: Staphylococcus aureus, 18 h
# Method: as §2
# Strep. uberis SPU1 = assay: as above; settings: Streptococcus uberis, SPU1, 18 h
# Method: as §2
Structure (SMILES),MIC (M. hyopneumoniae Str. 11) [µg/mL],MIC (M. hyopneumoniae UCD 1) [µg/mL],MIC [2] [µg/mL],MIC [3] [µg/mL],MIC (M. hyorhinis ATCC 25021) [µg/mL],MIC (M. bovis NCTC 10131) [µg/mL],MIC (M. gallisepticum S6) [µg/mL],MIC (M. pneumoniae ATCC 15492) [µg/mL],MIC (Bacillus subtilis 6633) [µg/mL],MIC (E. coli NCTC 10418) [µg/mL],MIC (P. mirabilis 889) [µg/mL],MIC [4] [µg/mL],MIC [5] [µg/mL],MIC (Sarcina lutea 8340) [µg/mL],MIC (Staph. aureus Russell) [µg/mL],MIC (Staph. aureus W2827) [µg/mL],MIC (Strep. agalactiae 2788-B) [µg/mL],MIC (Strep. faecalis I) [µg/mL],MIC (Strep. spp. 64/848-C) [µg/mL],MIC (E. coli E1) [µg/mL],also measured
"CC(=Cc1nnc(-c2cccs2)o1)CC1OCC(CC2OC2C(C)C(C)O)C(O)C1O (centres unmarked) [Example 6, 2-(1-Normon-2-yl)-5-(2-thienyl)-1,3,4-oxadiazole A]",2.5,5,2.5,5,1,0.05,> 10,> 10,4,> 128,> 128,2,> 128,32,16,16,32,> 128,32,> 80,MIC (M. hyopneumoniae JF 435): 5 µg/mL; MIC [1]: 5 µg/mL; MIC (M. hyopneumoniae MS 16): 2.5 µg/mL; MIC (M. hyorhinis ATCC 23234): 2.5 µg/mL; MIC (Bord. bronchiseptica B08): > 80 µg/mL; MIC (Past. multocida PA1): 2.5 µg/mL; MIC [6]: 80 µg/mL; MIC [7]: > 80 µg/mL; MIC [8]: 5 µg/mL; MIC (Strep. uberis SPU1): 5 µg/mL
"CC(=Cc1nc(-c2ccc([N+](=O)[O-])cc2)no1)CC1OCC(CC2OC2C(C)C(C)O)C(O)C1O (centres unmarked) [Example 16, 5-(1-Normon-2-yl)-3-(4-nitrophenyl)-1,2,4-oxadiazole]",0.25,0.5,0.1,1,0.25,0.25,> 10,> 10,16,> 64,> 64,32,> 64,> 64,16,16,32,> 64,32,> 80,"MIC (M. hyopneumoniae JF 435; M. hyopneumoniae JF 435, 6 days at 37° C, read-out: MIC): 1 µg/mL; MIC ([1]; M. hyopneumoniae J2206/183^b, 6 days at 37° C, read-out: MIC): 0.5 µg/mL; MIC (M. hyorhinis ATCC 23234; M. hyorhinis ATCC 23234, 6 days at 37° C, read-out: MIC): 0.25 µg/mL; MIC (Bord. bronchiseptica B08): 80 µg/mL; MIC (Past. multocida PA1): 5 µg/mL; MIC [6]: 10 µg/mL; MIC [7]: > 80 µg/mL; MIC [8]: 2.5 µg/mL; MIC (Strep. uberis SPU1): 2.5 µg/mL"
